Results published in patent publication US10829499B2, “Tetracyclic heterocycle compounds useful as HIV integrase inhibitors” (MERCK SHARP & DOHME CORP., priority 2016, dated 2020).
Like-named read-outs stand apart in the source and are kept apart here.

Tested on: HIV-1 (NL4-3 strain)
Experiment: Assay for Inhibition of HIV Replication (kinetic assay, MT4-gag-GFP reporter cell line; VIKING)
Assay type: cell-based
Method: This assay is a kinetic assay that employs a reporter cell line (MT4-gag-GFP) to quantify the number of new cells infected in each round of replication.
MT4-GFP cells (250,000 cells/ml) were bulk-infected with HIV-1 (NL4-3 strain) at low multiplicity of infection (MOI) in RPMI cell culture medium+10% FBS for 24 hours. Cells were then washed once in RPMI cell culture medium+10% FBS and resuspended in RPMI cell culture medium+0% or 10% or 100% normal human serum (NHS). Test compounds were serial-diluted in DMSO on an ECHO® liquid handler. The infected MT4-GFP cells were added to a 384-well poly-D-lysine coated black plate with clear bottom in which the diluted test compounds were placed. The cells were seeded at 8,000 cells per well and the final DMSO concentration was 0.4%. The infected cells (Green GFP cells) were quantified at both 24 and 48 hours post incubation using Acumen eX3. Viral reproductive ratio (R0) was determined using the number of infected cells at 48 hours divided by the number of infected cells at 24 hours. Percent viral growth inhibition was calculated by [1-(R-Rtripledrug),/(RDMSO-Rtripledrug)]*100. Compound potency IP or IC50 was determined by a 4-parameter dose response curve analysis. In vitro potency in the cell-based assay in the absence of normal human serum (NHS) and the presence of 100% NHS.

[1] = MT4-GFP cells infected with HIV-1 NL4-3, 0% normal human serum (NHS), read-out: VIKING IP50 (nM) with 0% NHS
[2] = MT4-GFP cells infected with HIV-1 NL4-3, 100% normal human serum (NHS), read-out: VIKING IP50 (nM) with 100% NHS
[3] = Human immunodeficiency virus 1, NL43, MT4-GFP cells infected with HIV-1 NL4-3, 0% normal human serum (NHS), read-out: VIKING IP50 (nM) with 0% NHS
[4] = Human immunodeficiency virus 1, NL43, MT4-GFP cells infected with HIV-1 NL4-3, 100% normal human serum (NHS), read-out: VIKING IP50 (nM) with 100% NHS

Compound	IC50 [1] [nM]	IC50 [2] [nM]	IC50 [3] [nM]	IC50 [4] [nM]
O=C(NCc1ccc(F)cc1)c1c2n3c(c(O)c1=O)C(=O)N1CCCOC1C3CC2 (single isomer, unassigned) [Compound 54]	0.654	904		
O=C(NCc1ccc(F)cc1F)c1c2n3c(c(O)c1=O)C(=O)N1CCCOC1C3CC2 (single isomer, unassigned) [Compound 55]		39.5	1.03	
O=C(NCc1ccc(F)cc1F)c1c2n3c(c(O)c1=O)C(=O)N1CCCOC1C3CC2 (single isomer, unassigned) [Compound 56]	0.701	1800		
O=C(NCc1ccc(F)cc1F)c1c2n3c(c(O)c1=O)C(=O)N1CCCOC1C3CC2 (single isomer, unassigned) [Compound 57]	0.919	871		
O=C(NCc1ccc(F)cc1F)c1c2n3c(c(O)c1=O)C(=O)N1CCCOC1C3CC2 (single isomer, unassigned) [Compound 58]	0.845	1520		
C[C@H]1CCOC2C3CCc4c(C(=O)NCc5ccc(F)cc5F)c(=O)c(O)c(n43)C(=O)N21 (single isomer, unassigned) [Compound 61]	22.1			8000
C[C@H]1CCOC2C3CCc4c(C(=O)NCc5ccc(F)cc5F)c(=O)c(O)c(n43)C(=O)N21 (single isomer, unassigned) [Compound 62]	0.83	528		
C[C@H]1CCOC2C3CCc4c(C(=O)NCc5ccc(F)cc5F)c(=O)c(O)c(n43)C(=O)N21 (single isomer, unassigned) [Compound 63]	3.09	127		
O=C(NCc1cccc(Cl)c1F)c1c2n3c(c(O)c1=O)C(=O)N1CCCCOC1C3CC2 (single isomer, unassigned) [Compound 65]	0.939	6680		
O=C(NCc1cccc(Cl)c1F)c1c2n3c(c(O)c1=O)C(=O)N1CCCCOC1C3CC2 (single isomer, unassigned) [Compound 66]	1.48	834		
O=C(NCc1cccc(Cl)c1F)c1c2n3c(c(O)c1=O)C(=O)N1CCCCOC1C3CC2 (single isomer, unassigned) [Compound 67]	0.577	1470		
O=C(NCc1ccc(F)cc1F)c1c2n3c(c(O)c1=O)C(=O)N1CCCCOC1C3CC2 (single isomer, unassigned) [Compound 69]		349	1.36	
O=C(NCc1ccc(F)cc1F)c1c2n3c(c(O)c1=O)C(=O)N1CCCCOC1C3CC2 (single isomer, unassigned) [Compound 70]	1.12	3920		
O=C(NCc1ccc(F)cc1F)c1c2n3c(c(O)c1=O)C(=O)N1CCCCOC1C3CC2 (single isomer, unassigned) [Compound 71]	1.25	30.7		
COC1CC2C3OCCN3C(=O)c3c(O)c(=O)c(C(=O)NCc4ccc(F)cc4F)c1n32 (single isomer, unassigned) [Compound 73]	0.679	49.4		
COC1CC2C3OCCN3C(=O)c3c(O)c(=O)c(C(=O)NCc4ccc(F)cc4F)c1n32 (single isomer, unassigned) [Compound 74]	2.19	181		
COC1CC2C3OCCN3C(=O)c3c(O)c(=O)c(C(=O)NCc4ccc(F)cc4F)c1n32 (single isomer, unassigned) [Compound 75]	4.99	6180		
COC1CC2C3OCCN3C(=O)c3c(O)c(=O)c(C(=O)NCc4ccc(F)cc4F)c1n32 (single isomer, unassigned) [Compound 76]	1.01	17.8		
COC1CC2C3OCCN3C(=O)c3c(O)c(=O)c(C(=O)NCc4ccc(F)cc4F)c1n32 (single isomer, unassigned) [Compound 77]	1.56	2160		
COC1CC2C3OCCN3C(=O)c3c(O)c(=O)c(C(=O)NCc4ccc(F)cc4F)c1n32 (single isomer, unassigned) [Compound 78]	2.12	534		

Compound	IC50 [1] [nM]	IC50 [2] [nM]	IC50 [3] [nM]	IC50 [4] [nM]
COC1CC2C3OCCN3C(=O)c3c(O)c(=O)c(C(=O)NCc4ccc(F)cc4F)c1n32 (single isomer, unassigned) [Compound 79]	1.79	135		
CN1CCCN2C(=O)c3c(O)c(=O)c(C(=O)NCc4ccc(F)cc4F)c4n3C(CC4)C12 (single isomer, unassigned) [Compound 81]		24.2	1.15	
CN1CCCN2C(=O)c3c(O)c(=O)c(C(=O)NCc4ccc(F)cc4F)c4n3C(CC4)C12 (single isomer, unassigned) [Compound 82]	1.17	550		
CN1CCCN2C(=O)c3c(O)c(=O)c(C(=O)NCc4ccc(F)cc4F)c4n3C(CC4)C12 (single isomer, unassigned) [Compound 83]	0.857	16.8		
CN1CCCN2C(=O)c3c(O)c(=O)c(C(=O)NCc4cccc(Cl)c4F)c4n3C(CC4)C12 (single isomer, unassigned) [Compound 84]	0.762	37.5		
CN1CCCN2C(=O)c3c(O)c(=O)c(C(=O)NCc4cccc(Cl)c4F)c4n3C(CC4)C12 (single isomer, unassigned) [Compound 85]	0.703	17.8		
CN1CCCN2C(=O)c3c(O)c(=O)c(C(=O)NCc4cccc(Cl)c4F)c4n3C(CC4)C12 (single isomer, unassigned) [Compound 86]	0.426	9.17		
CN1CCCN2C(=O)c3c(O)c(=O)c(C(=O)NCc4cccc(Cl)c4F)c4n3C(CC4)C12 (single isomer, unassigned) [Compound 87]	0.875	1000		
C[C@@H]1COC2C3CCc4c(C(=O)NCc5ccc(F)cc5F)c(=O)c(O)c(n43)C(=O)N21 (stereo partly drawn) [Compound 32]			0.671	101
C[C@@H]1COC2C3CCc4c(C(=O)NCc5cccc(Cl)c5F)c(=O)c(O)c(n43)C(=O)N21 (stereo partly drawn) [Compound 35]			0.733	88.7
C[C@@H]1CN2C(=O)c3c(O)c(=O)c(C(=O)NCc4cccc(Cl)c4F)c4n3C(CC4)C2O1 (stereo partly drawn) [Compound 38]			0.543	46.4
C[C@H]1CN2C(=O)c3c(O)c(=O)c(C(=O)NCc4cccc(Cl)c4F)c4n3C(CC4)C2O1 (stereo partly drawn) [Compound 42]			1.38	1570
O=C(NCc1cccc(Cl)c1F)c1c2n3c(c(O)c1=O)C(=O)N1CCCO[C@H]1[C@H]3CC2 [Compound 47]			2.39	2680
CN1CCCN2C(=O)c3c(O)c(=O)c(C(=O)NCc4ccc(F)cc4F)c4n3C(CC4)C12 (stereo not drawn) [Compound 80]			0.662	13.8
C[C@H]1CNC2C3CCc4c(C(=O)NCc5cccc(Cl)c5F)c(=O)c(O)c(n43)C(=O)N21 (stereo partly drawn) [Compound 88]			0.705	13.7
C[C@H]1CNC2C3CCc4c(C(=O)NCc5cccc(Cl)c5F)c(=O)c(O)c(n43)C(=O)N21 (stereo partly drawn) [Compound 89]	0.709	120		
C[C@H]1CNC2C3CCc4c(C(=O)NCc5cccc(Cl)c5F)c(=O)c(O)c(n43)C(=O)N21 (stereo partly drawn) [Compound 90]	0.397	24.6		
C[C@H]1CN2C(=O)c3c(O)c(=O)c(C(=O)NCc4cccc(Cl)c4F)c4n3C(CC4)C2N1 (stereo partly drawn) [Compound 91]	1	464		
C[C@H]1CN2C(=O)c3c(O)c(=O)c(C(=O)NCc4cccc(Cl)c4F)c4n3C(CC4)C2N1 (stereo partly drawn) [Compound 92]	0.67	8.12		
